Measured values published in patent publication US10314312B2, “Synergistic antimicrobial composition of zinc pyrithione” (Jubilant Life Sciences Limited, priority 2014, dated 2019).

Legend:
[1] = test system: Malassezia furfur (ATCC No. 14521); assay: Anti-dandruff efficacy: zone of inhibition by disc diffusion method; format: cell-based; set-up: key: XX denotes No Activity
Method: (§1) The anti-dandruff efficacy was determined by measuring zone of inhibition using disc diffusion method against Malassezia furfur (ATCC No. 14521). […] The culture plates were incubated at 37° C. for 48 hrs and antifungal activity was evaluated by observing an area of no growth around the disc. An area of no growth around the swatch is known as a zone of inhibition.

[2] = Anti-leaching (biocide release rate) of paint formulations, ASTM-D-6903-07
Method: The biocide (ZPTO) release rate in each test sample is calculated by the following formula: Biocide (ZPTO) release rate=(CZPTO*V*D)/(T*A) wherein, CZPTO=concentration of ZPTO in substitute ocean water (μgL^−1); V=substitute ocean water volume (L); D=hours per day; T=rotation period (hr); A=Area of paint (cm^2).

[3] = combination: ZnP 0.25 w/w % + zinc salt 0.25 w/w %
[4] = zinc salt alone 0.25 w/w %, no ZnP
[5] = zinc salt alone 0.50 w/w %, no ZnP
[6] = zinc salt alone 1.00 w/w %, no ZnP
[7] = zinc salt alone 1.50 w/w %, no ZnP
[8] = zinc salt alone 2.00 w/w %, no ZnP
[9] = combination: ZnP 0.25 w/w % + zinc salt 0.50 w/w %
[10] = combination: ZnP 0.25 w/w % + zinc salt 1.50 w/w %

Method for M. furfur: as §1
The SI is calculated based on F. C. […] SI=Qa/QA+Qb/QB Qa=the concentration of compound A in the blend; Qb=the concentration of compound B in the blend; QA=the concentration of compound A as the only biocide; QB=the concentration of compound B as the only biocide.
If SI (the Synergy Index) is greater than one, antagonism between the products is indicated. If the sum is equal to one, additivity is indicated. But when SI is less than one, synergism is shown, i.e. the lower the SI the greater the synergy shown.

| Compound | Zone of Inhibition [1, 3] | Zone of Inhibition [1, 4] | Zone of Inhibition [1, 5] | Zone of Inhibition [1, 6] | Zone of Inhibition [1, 7] | Zone of Inhibition [1, 8] | Zone of Inhibition [1, 9] | Zone of Inhibition [1, 10] | QB = the concentration of compound B as the only biocide (minimum inhibitory concentration) (M. furfur; zinc nicotinate alone) | Zone of Inhibition ([1]; combination: ZnP 0.50 w/w % + zinc salt 1.50 w/w %) | Zone of Inhibition ([1]; combination: ZnP 1.00 w/w % + zinc salt 0.25 w/w %) | Zone of Inhibition ([1]; combination: ZnP 1.00 w/w % + zinc salt 0.50 w/w %) | QA = the concentration of compound A as the only biocide (minimum inhibitory concentration) (M. furfur; zinc pyrithione alone) | Zone of Inhibition ([1]; ZnP alone 0.25 w/w %) | Zone of Inhibition ([1]; ZnP alone 0.50 w/w %) | Zone of Inhibition ([1]; ZnP alone 1.00 w/w %) | Zone of Inhibition ([1]; ZnP alone 1.50 w/w %) | Zone of Inhibition ([1]; ZnP alone 2.00 w/w %) | ZPTO Conc (av.) ([2]; ZPTO concentration in artificial marine water (substitute ocean water), paint formulation) | Rate of Biocide Leaching (CZPTO * V*D)/(T*A) ([2]; paint formulation in substitute ocean water) |
| --- | --- | --- | --- | --- | --- | --- | --- | --- | --- | --- | --- | --- | --- | --- | --- | --- | --- | --- | --- | --- |
| NCC(=O)[O-].NCC(=O)[O-].[Zn+2] [Zn-Gly] | 30 mm | XX | XX | XX | XX | XX |  |  |  |  |  |  |  |  |  |  |  |  |  |  |
| CC(O)C(=O)[O-].CC(O)C(=O)[O-].[Zn+2] (centres unmarked) [Zn-Lac] | 38 mm | XX | XX | XX | XX | XX |  |  |  |  |  |  |  |  |  |  |  |  |  |  |
| O=C([O-])c1ccccn1.O=C([O-])c1ccccn1.[Zn+2] [Zn-Pic] | 35 mm | XX | XX | XX | XX | XX | 38 mm | 38 mm |  |  |  |  |  |  |  |  |  |  |  |  |
| [O]=[Zn] [ZnO, zinc oxide] | 30 mm | XX | XX | XX | XX | XX |  | 32 mm |  |  |  |  |  |  |  |  |  |  |  |  |
| Zinc Nicotinate [Zn-Nic] | 40 mm | XX | XX | XX | XX | 6 mm | 40 mm | 38 mm | 35000 (QB) | 48 mm | 32 mm | 48 mm |  |  |  |  |  |  |  |  |
| Zinc pyrithione [ZPTO] |  |  |  |  |  |  |  |  |  |  |  |  | 8 | 30 mm | 30 mm | 30 mm | 30 mm | 30 mm | 2145.6 μgL−1 | 171.65 μgcm^2d^−1 |
